Data: ChEMBL document CHEMBL1156829 (Proc Natl Acad Sci U S A, 2008)

Experiments:
Plasmodium falciparum [1] = assay: NOVARTIS: Inhibition of Plasmodium falciparum W2 (drug-resistant) proliferation in erythrocyte-based infection assay; format: functional, organism-based; details: Plasmodium falciparum, W2; read-out: EC50
Plasmodium falciparum [2] = assay: NOVARTIS: Inhibition of Plasmodium falciparum 3D7 (drug-susceptible) proliferation in erythrocyte-based infection assay; format: functional, organism-based; details: Plasmodium falciparum, 3D7
[3] = NOVARTIS: Cytotoxicity against human hepatocellular carcinoma cell line (Huh7); format: toxicity, cell-based, Huh-7; details: Huh7 cells (hepatocellular carcinoma cell line)

| Compound | EC50 (Plasmodium falciparum [1]) | EC50 (Plasmodium falciparum [2]) | CC50 [3] |
| --- | --- | --- | --- |
| CC(C)CC1C(c2ccc(Cl)cc2)C(C(=O)c2ccccc2)C2(C(=O)Nc3ccc(Br)cc32)N1C(=O)NCc1ccccc1 (stereo not given) | > 1020 nM | 775 nM | > 10000 nM |
| S=C(NN=CC=NNC(=S)Nc1ccccc1)Nc1ccccc1 | 288 nM | 1040 nM | 15000 nM |
| CC(C)CNC(=O)c1cnc(NCCC2CCCN2C)nc1NC1CCCC1 (stereo not given) | 1140 nM | 908 nM | > 10000 nM |
| COc1ccc(Nc2nc(NN=Cc3cccc(F)c3)nc(Nc3ccc([N+](=O)[O-])cc3)n2)cc1 | 704 nM | 662 nM | > 100000 nM |
| CN(C)CCCNc1ncnc2c1[nH]c1ccccc12 | 934 nM | 233 nM | > 100000 nM |
| Cc1nc2c(C#N)c(C)nn2c(C)c1Cc1cccc(F)c1 | 444 nM | 437 nM | > 10000 nM |
| CCOc1ccc(C=NNC(=O)CCn2nnc3ccccc32)cc1 | > 1250 nM | > 1040 nM | > 13600 nM |
| COc1ccc(CNC(=O)CCc2cn(Cc3cc(C)ccc3C)c3ccccc23)cc1OC | > 1250 nM | > 842 nM | > 10000 nM |
| O=C(c1cnsn1)N1CCCC(COc2cccc(CN3CCC(Cc4ccccc4)CC3)c2)C1 (stereo not given) | > 12500 nM | > 3670 nM | > 100000 nM |
| CC(=O)N1CCc2cc(NC3CCN(Cc4ccccc4)CC3)ccc21 | > 656 nM | > 1250 nM | > 10000 nM |
| CN1C=CC(=Cc2sc3ccccc3[n+]2C)C=C1 | 558 nM | 208 nM | > 100000 nM |
| CCc1c(C)c(=N)c2ccccc2n1C | 534 nM | 701 nM | > 100000 nM |
| COc1ccc(OC)c(-c2ccc(O)c(CNCCCN(C)C)c2)c1 | 670 nM | 1260 nM | 21400 nM |
| CCc1c(C#N)c(N)nc2sc(C(=O)c3ccc(Br)cc3)c(N)c12 | > 12500 nM | 5460 nM | > 100000 nM |
| COC(=O)[C@@H]1C[C@@H](NC(=O)c2ccc(OC)cc2OC)CN1CC(c1ccccc1)c1ccccc1 | 1190 nM | 590 nM | > 10000 nM |
| COc1ccc(C2C(C(=O)Nc3cccc(Cl)c3)c3ccccc3C(=O)N2C2CCCCC2)cc1 (stereo not given) | 930 nM | 1550 nM | > 100000 nM |
| Cc1cc(C)cc(Nc2cc(C)nc3ncnn23)c1 | 901 nM | 1220 nM | > 100000 nM |
| FC(F)(F)c1cnc(Sc2nnc(-c3ccncc3)o2)c(Cl)c1 | 976 nM | 1870 nM | 83900 nM |

| Compound | EC50 (Plasmodium falciparum [1]) | EC50 (Plasmodium falciparum [2]) | CC50 [3] |
| --- | --- | --- | --- |
| CC1=C(C(=O)OC2CCCCC2)C(c2ccc(Cl)c(Cl)c2)C2=C(CCCC2=O)N1 (stereo not given) | > 12500 nM | 735 nM | > 100000 nM |
| Cc1cccc(Nc2nc3nonc3[nH]c2=NN=Cc2cccs2)c1C | 4300 nM | 8650 nM | 23300 nM |
| CCCOC(=O)C1=C(C)NC2=C(C(=O)CC(c3ccc(OC)c(OC)c3)C2)C1c1ccc(Cl)cc1Cl (stereo not given) | 4.36 nM | 7.62 nM | > 100000 nM |
| Cc1cc(-c2cnc(N3CCCC3)nc2C2CCN(Cc3cccnc3)CC2)on1 | > 1090 nM | 190 nM | > 10000 nM |
| CCCCCc1ccc(OCCCC[n+]2cccc(C)c2C)c(CCCCC)c1 | 120 nM | 215 nM | 3000 nM |
| Cc1cc(NC(=O)C2c3ccccc3C(=O)N(CC(C)C)C2c2cccs2)no1 (stereo not given) | 45.3 nM | 85.6 nM | > 100000 nM |
| O=C(NN=CC1CC=CCC1)c1ccc([N+](=O)[O-])cc1Cl (stereo not given) | > 549 nM | > 1250 nM | > 10000 nM |
| COc1cc(NCCCC(C)Nc2ccnc3cc4ccccc4cc23)c2ncccc2c1 (stereo not given) | 49.9 nM | 83.5 nM | 2470 nM |
| COC(=O)COc1ccc(/C=C2\SC(=Nc3ccc(F)cc3)NC2=O)cc1 | 1790 nM | > 757 nM | > 10000 nM |
| CCN(CC)CCNC(=O)c1cc(-c2cc3ccccc3s2)cc(-n2cnnn2)c1 | 151 nM | 61.6 nM | 21300 nM |
| Clc1cccc(Cl)c1C[n+]1ccc2ccccc2c1 | 867 nM | 1890 nM | > 100000 nM |
| CN1CCN(C(=S)NC(=O)/C=C/c2ccc(F)cc2)CC1 | > 874 nM | > 1250 nM | > 10000 nM |
| CC(C)CC(NC(=O)C(=Cc1ccco1)NC(=O)c1ccccc1)C(=O)OCc1ccccc1 (stereo not given) | 1730 nM | > 12500 nM | > 100000 nM |
| O=C1CN(C(=O)COC(=O)c2ccccc2NCCc2ccc(F)cc2)c2ccccc2N1 | 165 nM | 219 nM | > 10000 nM |
| COC(=O)C1=C(C)NC2=C(C(=O)CC(c3ccc(OC)c(OC)c3)C2)C1c1ccc(Br)cc1 (stereo not given) | 181 nM | 450 nM | > 100000 nM |
| CCOc1ccc(Nc2nc(N3CCCCC3)nc(N3CCCCC3)n2)cc1 | > 1250 nM | 1190 nM | > 10000 nM |
| O=C(CN1CCCC1)Nc1nc(-c2ccc3c(c2)CCN3S(=O)(=O)c2ccccc2)cs1 | 1270 nM | 468 nM | > 76200 nM |
